Values of other authors, collected in patent US11661349B2, “Method for making coffee husk reducing agent” (Imam Abdulrahman Bin Faisal University, priority 2019, dated 2023).
In brackets after ≈: the same amount, converted by molar mass.

How the values were obtained:
Aspergillus flavus = settings: A. flavus; from Elefanti et al. 2013
Aspergillus niger = settings: A. niger; from Elefanti et al. 2013

MIC (Aspergillus flavus): 100 mg/L (≈ 327 µM)
MIC (Aspergillus niger): 100 mg/L (≈ 327 µM)
Structure (SMILES): OC(Cn1cncn1)(Cn1cncn1)c1ccc(F)cc1F [Flucanazole]
MFC (Minimum Fungicidal Concentration) (Aspergillus flavus): 100 mg/L (≈ 327 µM)
MFC (Minimum Fungicidal Concentration) (Aspergillus niger): 100 mg/L (≈ 327 µM)
